Remaining binding and Kd data for one molecule are collected here from article PMC10507085, “Pharmacological inhibition of TBK1/IKKε blunts immunopathology in a murine model of SARS-CoV-2 infection” (Nature Communications, 2023).

Structures are written as SMILES.

Holding throughout (assay): biochemical
What all share (set-up): KINOMEscan competition binding, DNA-tagged kinase against immobilised ligand, qPCR read-out

The target in one assay is AKT1 (Homo sapiens, UniProt P31749). The settings on record: read-out: Percent Control. The procedure:
(§1) The KINOMEscan^TM kinase assays[65] were performed by Eurofins DiscoverX Corporation. For each kinase, the assay relies on the ability of the tested compound to compete against an immobilised ligand for binding to the DNA-tagged kinase. RT-qPCR is then used to measure the quantity of kinase molecules bound to the immobilised ligand, which is decreased if the tested compound competed with the kinase-ligand interaction. An 11-point 3-fold serial dilution of IDX compound was prepared in 100% DMSO at 100× final test concentration and subsequently diluted to 1× in the assay. […]

For a further assay, the target named is DYRK2 (Homo sapiens, UniProt Q92630). The procedure: as §1
The next assay addresses PIP4K2B (Homo sapiens, UniProt P78356). The following applies: read-out: Percent Control. The method, then:
as §1

The target of a further assay is STK35 (Homo sapiens, UniProt Q8TDR2). The following applies: read-out: Percent Control. The procedure: as §1
In the next assay the target is NEK7 (Homo sapiens, UniProt Q8TDX7). The following applies: read-out: Percent Control. The procedure:
as §1

The next assay deals with HIPK4 (Homo sapiens, UniProt Q8NE63). The settings on record: read-out: Percent Control. The method, then: as §1
The target in another assay is TXK (Homo sapiens, UniProt P42681). The settings on record: read-out: Percent Control. The method, then:
as §1

The target of another assay is MAP2K5 (Homo sapiens, UniProt Q13163). The following applies: read-out: Percent Control. The method, then: as §1
The next assay addresses MARK4 (Homo sapiens, UniProt Q96L34). The following applies: read-out: Percent Control. The procedure:
as §1

Another assay deals with T1, ADCK4 (Homo sapiens, UniProt Q96D53).
T1 construct: gene COQ8B
The following applies: read-out: Percent Control. The procedure: as §1

The next assay concerns the target NTRK3 (Homo sapiens, UniProt Q16288). The settings on record: read-out: Percent Control. The procedure:
as §1

Another assay concerns the target WNK1 (Homo sapiens, UniProt Q9H4A3). The settings on record: read-out: Percent Control. The procedure:
as §1

Assay [1] concerns the target T2, TYK2(JH1domain-catalytic) (Homo sapiens, UniProt P29597).
T2 construct: JH1 domain catalytic
The following applies: read-out: Percent Control. The method, then:
as §1

The next assay addresses IRAK1 (Homo sapiens, UniProt P51617). The settings on record: read-out: Percent Control. The procedure:
as §1

The target of another assay is PRKD3 (Homo sapiens, UniProt O94806). The following applies: read-out: Percent Control. The method, then:
as §1

The target of the next assay is CSF1R-autoinhibited (Homo sapiens, UniProt P07333). The following applies: read-out: Percent Control. The procedure:
as §1

A further assay has as its target PIM3 (Homo sapiens, UniProt Q86V86). The settings on record: read-out: Percent Control. The procedure: as §1
The target of a further assay is OXSR1 (Homo sapiens, UniProt O95747). The following applies: read-out: Percent Control. The procedure:
as §1

For assay [2], the target named is T3, RSK3(Kin.Dom.1-N-terminal) (Homo sapiens, UniProt Q15349).
T3 construct: gene RPS6KA2; Kin.Dom.1 N-terminal
The following applies: read-out: Percent Control. The procedure: as §1

For another assay, the target named is DSTYK (Homo sapiens, UniProt Q6XUX3). The following applies: read-out: Percent Control. The procedure: as §1

Sequence of DYRK2 (Q92630 whole entry): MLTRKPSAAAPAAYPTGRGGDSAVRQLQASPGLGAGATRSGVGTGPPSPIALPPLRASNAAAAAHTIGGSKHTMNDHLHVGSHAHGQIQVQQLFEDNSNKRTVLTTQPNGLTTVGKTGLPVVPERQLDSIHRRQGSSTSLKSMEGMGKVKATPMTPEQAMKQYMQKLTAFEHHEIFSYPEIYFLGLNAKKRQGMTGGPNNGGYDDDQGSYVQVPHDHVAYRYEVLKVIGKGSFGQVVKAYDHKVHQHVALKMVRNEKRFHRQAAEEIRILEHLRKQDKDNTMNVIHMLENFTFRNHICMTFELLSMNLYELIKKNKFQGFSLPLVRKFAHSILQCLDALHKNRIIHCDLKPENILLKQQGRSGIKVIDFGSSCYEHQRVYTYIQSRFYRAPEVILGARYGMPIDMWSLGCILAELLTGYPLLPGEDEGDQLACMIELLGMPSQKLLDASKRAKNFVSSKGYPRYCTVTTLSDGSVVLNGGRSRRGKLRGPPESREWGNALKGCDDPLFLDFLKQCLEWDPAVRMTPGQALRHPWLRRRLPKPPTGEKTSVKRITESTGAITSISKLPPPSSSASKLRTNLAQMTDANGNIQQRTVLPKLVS
Sequence of PIP4K2B (P78356 whole entry): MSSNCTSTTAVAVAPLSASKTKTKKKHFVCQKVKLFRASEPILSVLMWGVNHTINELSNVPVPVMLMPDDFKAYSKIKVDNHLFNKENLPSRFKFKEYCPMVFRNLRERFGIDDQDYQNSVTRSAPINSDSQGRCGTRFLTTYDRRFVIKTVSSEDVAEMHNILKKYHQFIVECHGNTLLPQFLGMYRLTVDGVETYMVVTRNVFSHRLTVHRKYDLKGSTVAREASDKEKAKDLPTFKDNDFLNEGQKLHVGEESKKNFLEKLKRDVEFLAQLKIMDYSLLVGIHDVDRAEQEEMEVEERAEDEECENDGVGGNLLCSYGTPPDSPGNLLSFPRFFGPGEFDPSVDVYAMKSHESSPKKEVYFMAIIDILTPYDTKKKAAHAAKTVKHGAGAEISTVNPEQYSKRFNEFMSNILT
T2 sequence (P29597 whole entry, the tested form may be a part): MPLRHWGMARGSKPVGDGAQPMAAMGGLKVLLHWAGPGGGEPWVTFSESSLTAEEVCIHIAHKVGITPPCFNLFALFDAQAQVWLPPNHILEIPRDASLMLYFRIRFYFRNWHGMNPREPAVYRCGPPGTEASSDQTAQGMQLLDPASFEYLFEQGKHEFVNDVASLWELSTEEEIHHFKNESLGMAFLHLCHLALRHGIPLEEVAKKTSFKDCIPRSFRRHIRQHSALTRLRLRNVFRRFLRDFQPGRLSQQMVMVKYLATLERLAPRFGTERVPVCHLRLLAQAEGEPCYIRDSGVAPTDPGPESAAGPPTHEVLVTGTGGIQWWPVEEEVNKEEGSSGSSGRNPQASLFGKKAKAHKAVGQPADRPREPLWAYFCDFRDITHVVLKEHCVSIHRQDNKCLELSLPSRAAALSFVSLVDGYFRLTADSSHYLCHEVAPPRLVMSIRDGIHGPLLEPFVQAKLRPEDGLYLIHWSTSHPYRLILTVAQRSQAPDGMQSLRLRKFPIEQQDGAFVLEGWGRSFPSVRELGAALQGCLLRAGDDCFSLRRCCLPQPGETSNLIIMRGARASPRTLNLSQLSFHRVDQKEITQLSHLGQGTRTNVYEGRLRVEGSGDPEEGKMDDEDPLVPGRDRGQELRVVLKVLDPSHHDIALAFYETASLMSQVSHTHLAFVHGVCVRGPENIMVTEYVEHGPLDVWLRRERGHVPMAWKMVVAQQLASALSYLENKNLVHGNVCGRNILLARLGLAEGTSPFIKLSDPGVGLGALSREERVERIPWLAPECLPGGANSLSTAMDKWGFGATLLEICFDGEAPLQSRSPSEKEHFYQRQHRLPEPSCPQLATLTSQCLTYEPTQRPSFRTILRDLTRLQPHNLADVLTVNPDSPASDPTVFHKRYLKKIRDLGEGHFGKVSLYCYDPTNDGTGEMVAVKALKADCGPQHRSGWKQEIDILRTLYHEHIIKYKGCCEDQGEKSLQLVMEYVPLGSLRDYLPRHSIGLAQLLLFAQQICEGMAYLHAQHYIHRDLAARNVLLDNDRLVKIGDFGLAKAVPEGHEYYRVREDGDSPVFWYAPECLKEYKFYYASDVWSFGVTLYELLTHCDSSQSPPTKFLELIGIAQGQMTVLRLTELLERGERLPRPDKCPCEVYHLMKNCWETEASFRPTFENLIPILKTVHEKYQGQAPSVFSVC
Sequence of MAP2K5 (Q13163 whole entry): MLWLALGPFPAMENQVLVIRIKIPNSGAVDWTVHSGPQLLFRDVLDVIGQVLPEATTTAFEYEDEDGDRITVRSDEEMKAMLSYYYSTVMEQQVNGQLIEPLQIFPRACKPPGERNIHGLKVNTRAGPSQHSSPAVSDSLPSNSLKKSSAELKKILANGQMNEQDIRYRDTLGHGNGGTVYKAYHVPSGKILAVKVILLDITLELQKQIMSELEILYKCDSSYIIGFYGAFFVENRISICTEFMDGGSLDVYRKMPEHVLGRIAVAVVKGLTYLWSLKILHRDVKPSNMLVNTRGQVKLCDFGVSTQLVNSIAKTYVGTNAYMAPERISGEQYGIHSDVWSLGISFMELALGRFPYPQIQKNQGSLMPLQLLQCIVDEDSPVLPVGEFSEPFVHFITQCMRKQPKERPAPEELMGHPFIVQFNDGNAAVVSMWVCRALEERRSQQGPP
Sequence of HIPK4 (Q8NE63 whole entry): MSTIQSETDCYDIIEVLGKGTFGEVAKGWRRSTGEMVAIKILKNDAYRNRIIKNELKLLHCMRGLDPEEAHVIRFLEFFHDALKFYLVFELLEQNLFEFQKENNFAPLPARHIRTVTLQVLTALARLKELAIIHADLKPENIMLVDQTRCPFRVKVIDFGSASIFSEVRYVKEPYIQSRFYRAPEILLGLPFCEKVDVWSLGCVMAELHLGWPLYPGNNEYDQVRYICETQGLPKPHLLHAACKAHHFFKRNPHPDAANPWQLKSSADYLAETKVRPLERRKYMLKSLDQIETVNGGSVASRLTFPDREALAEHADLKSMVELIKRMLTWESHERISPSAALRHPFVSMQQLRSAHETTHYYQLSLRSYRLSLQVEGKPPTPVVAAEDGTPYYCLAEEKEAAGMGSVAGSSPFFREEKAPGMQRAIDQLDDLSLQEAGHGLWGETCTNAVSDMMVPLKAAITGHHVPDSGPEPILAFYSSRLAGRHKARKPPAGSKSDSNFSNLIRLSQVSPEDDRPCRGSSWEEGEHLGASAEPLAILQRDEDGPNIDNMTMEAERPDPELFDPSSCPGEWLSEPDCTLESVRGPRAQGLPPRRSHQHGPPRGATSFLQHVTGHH
Sequence of STK35 (Q8TDR2 whole entry): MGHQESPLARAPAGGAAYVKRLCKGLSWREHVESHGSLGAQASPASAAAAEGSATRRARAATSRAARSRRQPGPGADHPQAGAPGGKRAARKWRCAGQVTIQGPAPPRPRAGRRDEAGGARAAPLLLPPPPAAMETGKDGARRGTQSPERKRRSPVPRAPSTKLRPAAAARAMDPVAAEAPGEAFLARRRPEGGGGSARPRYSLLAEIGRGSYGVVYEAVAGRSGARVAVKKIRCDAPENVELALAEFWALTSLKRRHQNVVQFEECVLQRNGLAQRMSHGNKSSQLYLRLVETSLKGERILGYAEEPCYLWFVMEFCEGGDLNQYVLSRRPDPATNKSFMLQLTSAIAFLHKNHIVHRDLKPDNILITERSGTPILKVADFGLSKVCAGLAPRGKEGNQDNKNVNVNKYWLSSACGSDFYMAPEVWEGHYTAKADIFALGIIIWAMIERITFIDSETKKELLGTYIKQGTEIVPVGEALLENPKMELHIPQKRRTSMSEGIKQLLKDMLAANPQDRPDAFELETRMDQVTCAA
Sequence of NEK7 (Q8TDX7 whole entry): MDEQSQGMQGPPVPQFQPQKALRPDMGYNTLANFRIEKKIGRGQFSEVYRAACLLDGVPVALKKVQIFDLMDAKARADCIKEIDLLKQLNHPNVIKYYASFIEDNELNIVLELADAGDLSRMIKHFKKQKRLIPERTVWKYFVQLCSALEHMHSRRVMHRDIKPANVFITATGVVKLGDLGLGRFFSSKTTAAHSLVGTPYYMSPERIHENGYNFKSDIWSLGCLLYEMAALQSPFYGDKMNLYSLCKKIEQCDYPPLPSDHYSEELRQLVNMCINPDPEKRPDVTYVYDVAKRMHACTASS
T3 sequence (Q15349 whole entry): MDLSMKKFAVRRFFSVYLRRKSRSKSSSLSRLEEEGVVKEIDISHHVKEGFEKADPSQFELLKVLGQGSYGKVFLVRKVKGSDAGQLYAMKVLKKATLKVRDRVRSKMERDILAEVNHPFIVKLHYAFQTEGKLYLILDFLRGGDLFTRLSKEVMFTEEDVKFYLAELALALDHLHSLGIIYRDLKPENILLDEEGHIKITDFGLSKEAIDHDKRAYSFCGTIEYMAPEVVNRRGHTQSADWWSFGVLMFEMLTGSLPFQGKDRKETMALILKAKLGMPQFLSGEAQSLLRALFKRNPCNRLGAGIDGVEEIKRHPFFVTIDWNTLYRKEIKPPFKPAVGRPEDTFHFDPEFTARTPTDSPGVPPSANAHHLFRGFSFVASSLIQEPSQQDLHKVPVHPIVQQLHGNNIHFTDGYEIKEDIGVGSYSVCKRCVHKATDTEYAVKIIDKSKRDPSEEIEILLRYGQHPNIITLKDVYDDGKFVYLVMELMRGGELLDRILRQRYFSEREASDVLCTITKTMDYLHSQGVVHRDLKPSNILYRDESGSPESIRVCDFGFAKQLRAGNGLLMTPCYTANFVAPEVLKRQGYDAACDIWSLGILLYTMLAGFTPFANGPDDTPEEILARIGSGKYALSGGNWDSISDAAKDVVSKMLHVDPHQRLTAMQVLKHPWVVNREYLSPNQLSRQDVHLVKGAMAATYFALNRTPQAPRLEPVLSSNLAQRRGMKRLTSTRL

One may read the Kd as the free concentration of one partner at which half of the binding sites on the other are occupied at equilibrium, for simple one-to-one binding. Regarding `Oc1ccc(C2=Cc3ccc(O)cc3OC2)cc1` [compound 1, idronoxil], the remaining binding at 10 µM at AKT1 is 75%; on DYRK2 (read-out: Percent Control), 11%; at PIP4K2B, 100%; at STK35, 88%; on NEK7, 99%; at HIPK4 it was 75%. The remaining binding at 10 µM at TXK is 87%; at MAP2K5 it was 62%; at MARK4, 97%; at ADCK4, 81%; at NTRK3, 97%; on WNK1, 83%. Also, the remaining binding at 10 µM in assay [1] turned out to be 74%; at IRAK1, 80%; at PRKD3, 85%; at CSF1R-autoinhibited it was 67%; at PIM3 it was 40%; at OXSR1 it was 75%. Also, the figures for the remaining binding at 10 µM (in [2]; at DSTYK) were 89% and 74%, respectively. Further, the Kd at DYRK2 amounted to 2700 nM.
